The values below come from patent publication US20230181580A1, “TREATMENT OF PROLIFERATIVE DISEASES OF THE CNS” (AUCENTRA THERAPEUTICS PTY LTD, priority 2020, published 2023).

For data set [1], the system named is GBM patient-derived G4T cells. The data set is described as follows: Orthotopic GBM patient-derived G4T xenograft. Format: in vivo, NSG mice. The settings on record: single agent or with TMZ; p<0.001. The procedure:
In a separate study, NSG mice (n=8) orthotopically engrafted with GBM patient-derived G4T cells were administered with vehicle, compound 1, TMZ, and co-treatment of compound 1 and TMZ, respectively, as shown in FIG. 6B. The disease burden of each of the treatment groups was measured by bioluminescent whole-body imaging.

The test system of a further data set is U87 GBM cells. The data set is described as follows: Subcutaneous U87 GBM xenograft, single agents. The data set is classed as in vivo. The source says: Compound 1 and compound 2 were also investigated for in vivo antitumour activity in subcutaneous xenograft models. Briefly, U87 GBM cells were harvested and resuspended in a 1:1 mixture of serum-free media and matrigel, and 5×10^6 cells injected subcutaneously into the rear flank of 5-6-week-old CD1 nu/nu female mice. When the mean tumour volume reached 150-200 mm^3, animals were randomised to treatment groups (n=10 per group) and treated orally with vehicle (0.5% carboxymethyl cellulose in water), compound 1 or compound 2 daily for 21 days with the doses shown in FIGS. 5A and 5B. Mice were observed daily for signs of toxicity and weight loss, and tumour volume measured every other day.

Another data set has as its system H460. Kind of data set: MTT proliferation assay, lung. Format: cell-based. The settings on record: Homo sapiens, NCI-H460, 72 h, read-out: Antiproliferative activity GI50 H460. The source says: (§1) Representative compounds from Example 1, were subjected to standard MTT (3-(4,5-dimethylthiazol-2-yl)-2,5-diphenyltetrazolium bromide) and resazurin assays on solid tumour cell lines (including GBM cell lines) and leukemia cell lines, respectively, as previously reported (Wang S et al., J Med Chem 47:1662-1675, 2004; and Diab S. et al. CheMedChem 9:962-972, 2014).
A general note: Tetrazolium assays rely on reduction of a dye to a coloured formazan, in cell work by metabolically active cells.

The test system of another data set is LNCap. The data set is described as follows: MTT proliferation assay, prostate. Format: cell-based. The settings on record: Homo sapiens, 72 h, read-out: Antiproliferative activity GI50 LNCap.
Text: as §1

The test system of the next data set is MB453. Kind of data set: MTT proliferation assay, breast. The data set is classed as cell-based. The settings on record: 72 h, read-out: Antiproliferative activity GI50 MB453.
Text: as §1

Data set [2] concerns phosphorylated Rb proteins (pRb Ser780, pRbSer795, pRb807/811). The data set is described as follows: Western blot analysis of Rb phosphorylation. As to conditions: 24 h treatment, FIG. 3A. Format: cell-based. How it is done:
Cells were seeded at a density of 3×10^5 with 10 mL fresh medium on a sterile culture dish and incubated at 37° C. 5% CO2 for overnight prior to compound treatment. After 24 h, cells were harvested with PBS, centrifuged at 300×g for 5 mins, and lysed with 100 μL lysis buffer (25 mM 4-(2-hydroxyethyl)-1-piperazineethanesulphonic acid, 300 mM sodium chloride, 1.5 mM magnesium chloride, 0.5% sodium deoxycholate, 20 mM p-glycerophosphate, 1% Triton X-100, 0.1% sodium dodecyl sulphate, 0.2 mM EDTA, 0.5 mM dithiothreitol, 1 mM sodium orthovanadate and 25× protease inhibitor cocktail). Protein lysate was collected after 10 mins of maximum speed centrifugation at 4° C. The protein concentration of cell lysates was determined through performing a BSA standard curve using the Bio-Rad DC protein assay kit II (Bio-Rad, Sydney, NSW, Australia) according to the manufacturer's protocol. 30 μg protein was measured, mixed with 3× loading buffer and denatured at 95° C. for 5 mins using T100 thermal cycler (Bio-Rad). Molecular mass of each sample was then separated by gel electrophoresis on a 4-20% polyacrylamide gel at 120V for 1 h. The resolved proteins were transferred onto nitrocellulose membranes and blocked with 5% skimmed milk in Tris-buffered saline and Tween 20 (TBST) for 1 h at room temperature. […] Band intensity was determined using a ChemiDoc™ multiplexing imaging system (Bio-Rad). […]
(In western blotting, separated proteins are transferred to a membrane and probed.)

Broadly, the T/C is the ratio of treated to control. Broadly, the GI50 is the concentration at which growth is held to half of that of the control. For the compound `CNc1nc(C)c(-c2nc(Nc3ccc(N4CCC(N(C)C)CC4)cn3)ncc2F)s1` [Compound 1, 5-(2-((5-(4-(dimethylamino)piperidin-1-yl)pyridin-2-yl)amino)-5-fluoropyrimidin-4-yl)-N,4-dimethylthiazol-2-amine], in data set [1], the “inhibition of tumour growth (bioluminescent imaging)” value is listed as “significant inhibition of tumour growth either as a single agent or in combination with TMZ”. In the data set with U87 GBM cells (day 21, oral daily for 21 days, vs vehicle, p<0.001), this compound had a T/C of 310%. Moreover, the “tumour growth compared to vehicle treatment” value in the data set on U87 GBM cells (oral daily for 21 days) is given as “markedly reduced tumour growth”. In addition, the toxicity entry in the data set with U87 GBM cells (oral daily for 21 days, observed daily for signs of toxicity and weight loss) is recorded as “without any overt toxicity”. Moreover, the results for the GI50 in the data set with H460, in the data set with LNCap and with MB453 were 3280 nM, 620 nM and 330 nM, respectively. Further, the “level of phosphorylated Rb proteins” value in data set [2] is reported as “reduces the level of phosphorylated Rb proteins”.
